Measured values: ChEMBL document CHEMBL4364241, “Developments in the anticancer activity of structurally modified curcumin: An up-to-date review” (Eur J Med Chem, 2019)
One block for each compound: values may come before it.

What was measured:
L02 [1] = assay: Cytotoxicity against human HL-7702 cells; type: functional, cell-based
CT26 = assay: Cytotoxicity against mouse CT26 cells; type: functional, cell-based
[2] = Cytotoxicity against human CCD-1059SK Cells after 48 hrs by MTS assay; type: functional
MCF7 [3] = assay: Induction of apoptosis in human MCF7 cells; type: functional, cell-based
MGC-803 [4] = assay: Antiproliferative activity against human MGC803 cells after 24 hrs by MTT assay; type: functional, cell-based; details: MGC-803, 24 h
HSC-2 = assay: Cytotoxicity against human HSC2 cells; type: functional, cell-based
HeLa [5] = assay: Anticancer activity against human HeLa cells; type: functional, cell-based
MCF7 [6] = assay: Cytotoxicity against human MCF7 Cells after 48 hrs by MTS assay; type: functional, cell-based; details: MCF7, 48 h
SK-OV-3 = assay: Cytotoxicity against human SKOV3 Cells after 48 hrs by Cell Titer Blue assay; type: functional, cell-based; details: SK-OV-3, 48 h
KBM5 = assay: Growth inhibition of human KBM5 cells relative to control; type: functional
A549 [7] = assay: Cytotoxicity against human A549 Cells by MTT assay; type: functional, cell-based
U373 MG = assay: Cytotoxicity against human U373MG Cells 48 hrs by MTS assay; type: functional, cell-based, U-373MG ATCC
HT-29 [8] = assay: Cytotoxicity against human HT-29 Cells after 72 hrs by MTT assay; type: functional, cell-based; details: HT-29, 72 h
MCF7 [9] = assay: Cytotoxicity against human MCF7 cells; type: functional, cell-based
[10] = Cytotoxicity against human GBM3 Cells 48 hrs by MTS assay; type: functional; details: GBM3, 48 h
MDA-MB-231 [11] = assay: Anticancer activity against human MDA-MB-231 cells after 72 hrs by MTT assay; type: functional, cell-based; details: MDA-MB-231, 72 h
BXPC-3 = assay: Cytotoxicity against human BxPC3 cells; type: functional, cell-based
MGC-803 [12] = assay: Cytotoxicity against human MGC803 cells; type: functional, cell-based
HCT-116 [13] = assay: Growth inhibition of human HCT116 cells relative to control; type: functional
SGC-7901 [14] = assay: Cytotoxicity against human SGC7901 cells; type: functional, cell-based
Caco-2 = assay: Cytotoxicity against human Caco2 Cells after 72 hrs by MTT assay; type: functional, cell-based; details: Caco-2, 72 h
PC-3 [15] = assay: Anticancer activity against human PC3 cells; type: functional, cell-based
MDA-MB-231 [16] = assay: Cytotoxicity against human MDA-MB-231 cells; type: functional, cell-based
[17] = Cytotoxicity against human GBM2 Cells 48 hrs by MTS assay; type: functional; details: GBM2, 48 h
HT-29 [18] = assay: Cytotoxicity against human HT-29 Cells; type: functional, cell-based
U-87 MG = assay: Cytotoxicity against human U87MG Cells 48 hrs by MTS assay; type: functional, cell-based, U-87MG ATCC
CHO-K1 = assay: Cytotoxicity against […] Cells after 72 hrs by MTT assay; type: functional, cell-based; details: Cricetulus griseus, CHO-K1, 72 h
HSC-4 = assay: Cytotoxicity against human HSC4 cells; type: functional, cell-based
HL-60 = assay: Cytotoxicity against human HL60 cells; type: functional, cell-based
U-251 = assay: Cytotoxicity against human U251MG cells after 48 hrs by MTS assay; type: functional, cell-based; details: U-251, 48 h
A549 [19] = assay: Cytotoxicity against human A549 Cells after 24 hrs by MTT assay; type: functional, cell-based; details: A549, 24 h
HepG2 [20] = assay: Cytotoxicity against human HepG2 Cells; type: functional, cell-based
SW-620 = assay: Cytotoxicity against human SW620 Cells; type: functional, cell-based
[21] = Cytotoxicity against human GBM6 Cells 48 hrs by MTS assay; type: functional; details: GBM6, 48 h
AGS [22] = assay: Cytotoxicity against human AGS Cells by MTT assay; type: functional, cell-based
[23] = Cytotoxicity against mitoxantrone resistant […] cells expressing BCRP after 15 mins by fluorescence assay; type: functional, cell-based; details: Canis lupus familiaris, MDCK2, 0.25 h
SMMC-7721 = assay: Anticancer activity against human SMMC7721 cells after 72 hrs by MTT assay; type: functional, cell-based; details: SMMC-7721, 72 h
BGC-823 [24] = assay: Cytotoxicity against human BGC823 cells; type: functional, cell-based
[25] = Anticancer activity against human LX2 cells after 72 hrs by MTT assay; type: functional, cell-based; details: LX-2, 72 h
NIH3T3 = assay: Cytotoxicity against mouse 3T3 Cells after 48 hrs by MTT assay; type: functional, cell-based; details: NIH3T3, 48 h
HepG2 [26] = assay: Cytotoxicity against human HepG2 Cells after 48 hrs by MTT assay; type: functional, cell-based; details: HepG2, 48 h
A549 [27] = assay: Cytotoxicity against human A549 Cells after 24 to 48 hrs by MTT assay; type: functional, cell-based
HepG2 [28] = assay: Cytotoxicity against human HepG2 Cells after 72 hrs by MTT assay; type: functional, cell-based; details: HepG2, 72 h
HEp-2 = assay: Cytotoxicity against human Hep2 Cells; type: functional, cell-based
[29] = Cytotoxicity against human GBM5 Cells 48 hrs by MTS assay; type: functional
K562 [30] = assay: Cytotoxicity against human K562 Cells after 24 to 48 hrs by MTT assay; type: functional, cell-based
RWPE-1 = assay: Cytotoxicity against human RWPE1 cells; type: functional, cell-based
HSC-3 = assay: Cytotoxicity against human HSC3 cells; type: functional, cell-based
HeLa [31] = assay: Cytotoxicity against human HeLa Cells; type: functional, cell-based
AGS [32] = assay: Cytotoxicity against human AGS Cells; type: functional, cell-based
NCI-H1299 = assay: Cytotoxicity against human H1299 cells; type: functional, cell-based
SW480 = assay: Cytotoxicity against human SW480 Cells after 24 to 48 hrs by MTT assay; type: functional, cell-based
SGC-7901 [33] = assay: Antiproliferative activity against human SGC7901 cells after 24 hrs by MTT assay; type: functional, cell-based; details: SGC-7901, 24 h
BGC-823 [34] = assay: Antiproliferative activity against human BGC823 cells after 24 hrs by MTT assay; type: functional, cell-based; details: BGC-823, 24 h
MCF7 [35] = assay: Cytotoxicity against human MCF7 Cells after 48 hrs by MTT assay; type: functional, cell-based; details: MCF7, 48 h
[36] = Cytotoxicity against human GBM4 Cells 48 hrs by MTS assay; type: functional
[37] = Cytotoxicity against human GBM1 Cells 48 hrs by MTS assay; type: functional; details: GBM1, 48 h
HCT-116 [38] = assay: Cytotoxicity against human HCT116 Cells; type: functional, cell-based
PC-3 [39] = assay: Cytotoxicity against human PC3 cells; type: functional, cell-based
DU-145 = assay: Anticancer activity against human DU145 cells; type: functional, cell-based
EA.hy 926 = assay: Cytotoxicity against human EAhy926 Cells after 72 hrs by MTT assay; type: functional, cell-based; details: EA.hy 926, 72 h
GES1 = assay: Cytotoxicity against human GES-1 cells; type: functional, cell-based
[40] = Cytotoxicity against human LX2 Cells after 48 hrs by MTT assay; type: functional; details: LX-2, 48 h
Bcap37 = assay: Cytotoxicity against human Bcap37 cells; type: functional, cell-based
[41] = molecular target: Tyrosine-protein kinase ABL1 (Homo sapiens, UniProt P00519, Y253F); assay: Inhibition of ABL Y253F mutant (unknown origin)
[42] = molecular target: Tyrosine-protein kinase ABL1 (Homo sapiens, UniProt P00519, Q252H); assay: Inhibition of ABL Q252H mutant (unknown origin)
[43] = molecular target: Tyrosine-protein kinase ABL1 (Homo sapiens, UniProt P00519, T315I); assay: Inhibition of ABL T315I mutant (unknown origin)
[44] = molecular target: Tyrosine-protein kinase ABL1 (Homo sapiens, UniProt P00519); assay: Inhibition of Wild type ABL (unknown origin)
L02 [45] = assay: Cytotoxicity against human LO2 Cells; type: functional, cell-based
K562 [46] = assay: Antiproliferative activity against human K562 Cells; type: functional, cell-based
THP-1 = assay: Cytotoxicity against human THP1 Cells; type: functional, cell-based
HepG2 [47] = assay: Cytotoxicity against human HepG2 Cells by MTT/Trypan Blue Exclusion Assay; type: functional, cell-based

Structure (SMILES): Cc1ccc2ncnc(Oc3ccccc3/C=C/C(=O)/C=C/c3c(Cl)cccc3Cl)c2c1
IC50 (Bcap37): 4.98 µM
IC50 (MGC-803 [12]): 0.85 µM
IC50 (PC-3 [39]): 1.37 µM

Structure (SMILES): COc1cccc2c1C(=O)c1c(O)c3c(c(O)c1C2=O)C[C@@](O)(C(=O)CO)C[C@@H]3O[C@H]1C[C@H](N)[C@H](O)[C@H](C)O1 [DOXORUBICIN]
IC50 (L02 [45]): 6.93 µM
IC50 (K562 [46]): 1.42 µM
IC50 (THP-1): 0.3 µM
IC50 (HepG2 [20]): 0.57 µM
IC50 (HepG2 [47]): 14.7 µM
IC50 (HeLa [31]): 2.02 µM

Structure (SMILES): COc1ccc(OC)c(/C=C2\CC/C(=C\c3ccc(O)c(OC)c3)C2=O)c1
IC50 (MGC-803 [12]): 13.3 µM
IC50 (SGC-7901 [14]): 3.9 µM
IC50 (BGC-823 [24]): 4.7 µM
IC50 (GES1): 27.3 µM

Continued, in another order:

IC50 (MCF7 [3]): 17.1 µM
IC50 (MGC-803 [4]): > 20 µM
IC50 (HeLa [5]): 4.33 µM
IC50 (MDA-MB-231 [11]): 11.5 µM
IC50 (PC-3 [15]): 20.9 µM
IC50 (SMMC-7721): 12.6 µM
IC50 (SGC-7901 [33]): > 20 µM
IC50 (BGC-823 [34]): > 20 µM
IC50 (DU-145): 31.7 µM
Structure (SMILES): COc1cc(/C=C/C(=O)CC(=O)/C=C/c2ccc(O)c(OC)c2)ccc1O [CURCUMIN]
IC50 (L02 [1]): 32.3 µM
IC50 (CT26): > 20 µM
IC50 [2]: 133 µM
IC50 (HSC-2): 7.8 µM
IC50 (MCF7 [6]): 68.2 µM
IC50 (SK-OV-3): 6.7 µM
growth inhibition (GI) (KBM5): 46%
IC50 (A549 [7]): 25.3 µM
IC50 (U373 MG): > 50 µM
IC50 (HT-29 [8]): 23.4 µM
IC50 (MCF7 [9]): 22.5 µM
IC50 [10]: > 50 µM
IC50 (BXPC-3): 18.2 µM
IC50 (MGC-803 [12]): 21.2 µM
growth inhibition (GI) (HCT-116 [13]): 46.87%
IC50 (SGC-7901 [14]): 22.5 µM
IC50 (Caco-2): 28 µM
IC50 (MDA-MB-231 [16]): 26.5 µM
IC50 [17]: > 50 µM
IC50 (HT-29 [18]): 18.7 to 66.9 µM
IC50 (U-87 MG): 7.15 µM
IC50 (CHO-K1): 21.3 µM
IC50 (HSC-4): 7.1 µM
IC50 (HL-60): 6.3 µM
IC50 (U-251): 15.3 µM
IC50 (A549 [19]): 52.3 µM
IC50 (HepG2 [20]): 36.8 µM
IC50 (SW-620): > 50 µM
IC50 [21]: > 50 µM
IC50 (AGS [22]): 20.8 µM
IC50 [23]: 32 µM
IC50 (BGC-823 [24]): 17.5 µM
IC50 [25]: 14 µM
IC50 (NIH3T3): 9.51 µM
IC50 (HepG2 [26]): 9.44 µM
IC50 (A549 [27]): 28 to 30 µM
IC50 (HepG2 [28]): 20.3 to 24.9 µM
IC50 (HEp-2): 21.4 µM
IC50 [29]: > 50 µM
IC50 (K562 [30]): 36 to 38 µM
IC50 (RWPE-1): 15.6 µM
IC50 (HSC-3): 11 µM
IC50 (HeLa [31]): 14 to 22.2 µM
IC50 (AGS [32]): 9.77 µM
IC50 (NCI-H1299): 18.9 µM
IC50 (SW480): 15 to 17 µM
IC50 (MCF7 [35]): 9.28 µM
IC50 [36]: > 50 µM
IC50 [37]: 39.6 µM
IC50 (HCT-116 [38]): 5.51 to 20 µM
IC50 (PC-3 [39]): 20 µM
IC50 (EA.hy 926): 20 µM
IC50 (GES1): 29.1 µM
IC50 [40]: 9.14 µM

IC50 [41]: 0.0798 µM
IC50 [42]: 0.185 µM
IC50 [43]: 0.0673 µM
IC50 [44]: 0.0833 µM
Structure (SMILES): COc1cc(C=C(C(=O)/C=C/c2ccc(O)c(OC)c2)C(=O)/C=C/c2ccc(O)c(OC)c2)ccc1O
